Assay results as given in ChEMBL document CHEMBL6078619, “Targeting focal adhesion kinase (FAK) in cancer therapy: A recent update on inhibitors and PROTAC degraders” (Eur J Med Chem, 2024).
Each block holds one compound with its values, some of them ahead of it.

Assays:
TE-1 = assay: Antiproliferative activity against human TE-1 cells; format: functional, cell-based
HGC-27 = assay: Antiproliferative activity against human HGC-27 cells; format: functional, cell-based
ECa-109 cell line = assay: Antiproliferative activity against human EC109 cells; format: functional, cell-based
MDA-MB-231 [1] = assay: Antiproliferative activity against human MDA-MB-231 cells; format: functional, cell-based
A549 [2] = assay: Antiproliferative activity against human A549 cells; format: functional, cell-based
BGC-823 = assay: Antiproliferative activity against human BGC-823 cells; format: functional, cell-based
MGC-803 [3] = assay: Antiproliferative activity against human MGC-803 cells; format: functional, cell-based
Histone deacetylase 1 = Histone deacetylase 1 (Homo sapiens, UniProt Q13547); assay: Inhibition of HDAC1 (unknown origin)
Histone deacetylase 1, sequence (Q13547 whole entry): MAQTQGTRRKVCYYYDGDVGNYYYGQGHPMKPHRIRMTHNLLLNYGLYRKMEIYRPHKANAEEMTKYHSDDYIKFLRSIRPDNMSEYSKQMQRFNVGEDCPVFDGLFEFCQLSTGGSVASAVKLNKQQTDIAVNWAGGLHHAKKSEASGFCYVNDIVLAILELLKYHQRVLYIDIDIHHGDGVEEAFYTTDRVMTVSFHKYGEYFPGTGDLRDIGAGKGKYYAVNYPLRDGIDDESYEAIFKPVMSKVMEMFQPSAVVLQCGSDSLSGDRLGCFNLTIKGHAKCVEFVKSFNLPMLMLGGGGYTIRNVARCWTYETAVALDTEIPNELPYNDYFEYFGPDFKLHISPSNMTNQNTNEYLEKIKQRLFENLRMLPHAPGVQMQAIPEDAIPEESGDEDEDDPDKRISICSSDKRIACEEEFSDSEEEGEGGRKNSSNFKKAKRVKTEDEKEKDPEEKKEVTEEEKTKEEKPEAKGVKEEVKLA

Histone deacetylase 3 = Histone deacetylase 3 (Homo sapiens, UniProt O15379); assay: Inhibition of HDAC3 (unknown origin)
DU-145 = assay: Antiproliferative activity against human DU-145 cells; format: functional, cell-based
Histone deacetylase 2 = Histone deacetylase 2 (Homo sapiens, UniProt Q92769); assay: Inhibition of HDAC2 (unknown origin)
Histone deacetylase 2, sequence (Q92769 whole entry): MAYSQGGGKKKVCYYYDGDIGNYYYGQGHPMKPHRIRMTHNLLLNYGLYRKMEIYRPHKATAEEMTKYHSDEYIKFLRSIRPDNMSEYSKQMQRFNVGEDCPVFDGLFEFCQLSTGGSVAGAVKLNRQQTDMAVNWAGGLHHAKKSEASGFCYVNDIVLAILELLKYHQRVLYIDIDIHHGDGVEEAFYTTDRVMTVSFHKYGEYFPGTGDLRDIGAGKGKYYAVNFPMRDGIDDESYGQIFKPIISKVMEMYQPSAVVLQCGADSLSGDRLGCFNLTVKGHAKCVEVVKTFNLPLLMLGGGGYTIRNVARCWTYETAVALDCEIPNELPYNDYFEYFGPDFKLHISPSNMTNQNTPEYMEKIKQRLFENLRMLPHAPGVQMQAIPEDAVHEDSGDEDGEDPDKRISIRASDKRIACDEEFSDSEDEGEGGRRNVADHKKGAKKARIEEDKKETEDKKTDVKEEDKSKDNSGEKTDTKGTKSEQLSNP

MCF7 [4] = assay: Antiproliferative activity against human MCF7 cells; format: functional, cell-based
HCT-116 [5] = assay: Antiproliferative activity against human HCT-116 cells; format: functional, cell-based
KYSE-450 = assay: Antiproliferative activity against human KYSE-450 cells; format: functional, cell-based
[6] = Antiproliferative activity against human PC-3 cells; format: functional, cell-based
NCI-H520 = assay: Antiproliferative activity against human NCI-H520 cells; format: functional, cell-based
[7] = Half life in human at 20 mg/kg, po; format: ADME, organism-based; conditions: in vivo
HCT-116 [8] = assay: Cytotoxicity against human HCT-116 cells; format: functional, cell-based
DLD-1 = assay: Cytotoxicity against human DLD1 cells assessed as growth inhibition; format: functional, cell-based
Focal adhesion kinase 1 [9] = molecular target: T1, Focal adhesion kinase 1 (Homo sapiens, UniProt Q05397); assay: Inhibition of FAK (unknown origin)
Target sequence in this assay (Q05397 whole entry): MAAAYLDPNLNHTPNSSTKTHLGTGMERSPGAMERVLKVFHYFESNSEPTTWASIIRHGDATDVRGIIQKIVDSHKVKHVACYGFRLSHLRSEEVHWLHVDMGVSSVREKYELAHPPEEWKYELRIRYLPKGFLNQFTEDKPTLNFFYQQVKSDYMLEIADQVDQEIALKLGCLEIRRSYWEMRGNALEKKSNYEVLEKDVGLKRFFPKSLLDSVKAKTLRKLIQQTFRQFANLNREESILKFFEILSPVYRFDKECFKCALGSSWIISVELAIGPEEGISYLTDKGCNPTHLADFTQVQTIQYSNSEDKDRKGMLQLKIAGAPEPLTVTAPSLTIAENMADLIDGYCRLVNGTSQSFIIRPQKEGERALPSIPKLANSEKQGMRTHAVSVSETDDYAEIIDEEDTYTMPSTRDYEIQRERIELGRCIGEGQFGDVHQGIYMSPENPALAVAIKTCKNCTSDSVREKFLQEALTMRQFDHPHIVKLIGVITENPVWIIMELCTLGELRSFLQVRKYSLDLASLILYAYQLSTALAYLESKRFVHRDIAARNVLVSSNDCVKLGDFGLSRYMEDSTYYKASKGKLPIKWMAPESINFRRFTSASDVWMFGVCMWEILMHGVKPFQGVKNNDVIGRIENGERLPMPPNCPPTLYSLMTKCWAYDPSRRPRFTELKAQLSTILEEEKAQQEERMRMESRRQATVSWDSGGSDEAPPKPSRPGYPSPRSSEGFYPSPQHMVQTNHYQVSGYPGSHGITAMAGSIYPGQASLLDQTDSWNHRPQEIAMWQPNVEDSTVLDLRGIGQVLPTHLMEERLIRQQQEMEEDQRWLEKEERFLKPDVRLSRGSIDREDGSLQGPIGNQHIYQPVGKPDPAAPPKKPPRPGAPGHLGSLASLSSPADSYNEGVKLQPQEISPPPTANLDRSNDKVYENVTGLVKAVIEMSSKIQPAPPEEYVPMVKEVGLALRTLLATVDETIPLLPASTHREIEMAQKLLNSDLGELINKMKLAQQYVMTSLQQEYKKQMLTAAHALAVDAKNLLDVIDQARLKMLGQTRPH

Insulin receptor = Insulin receptor (Homo sapiens, UniProt P06213); assay: Inhibition of INSR (unknown origin)
Insulin receptor, sequence (P06213 28-758 limits assumed): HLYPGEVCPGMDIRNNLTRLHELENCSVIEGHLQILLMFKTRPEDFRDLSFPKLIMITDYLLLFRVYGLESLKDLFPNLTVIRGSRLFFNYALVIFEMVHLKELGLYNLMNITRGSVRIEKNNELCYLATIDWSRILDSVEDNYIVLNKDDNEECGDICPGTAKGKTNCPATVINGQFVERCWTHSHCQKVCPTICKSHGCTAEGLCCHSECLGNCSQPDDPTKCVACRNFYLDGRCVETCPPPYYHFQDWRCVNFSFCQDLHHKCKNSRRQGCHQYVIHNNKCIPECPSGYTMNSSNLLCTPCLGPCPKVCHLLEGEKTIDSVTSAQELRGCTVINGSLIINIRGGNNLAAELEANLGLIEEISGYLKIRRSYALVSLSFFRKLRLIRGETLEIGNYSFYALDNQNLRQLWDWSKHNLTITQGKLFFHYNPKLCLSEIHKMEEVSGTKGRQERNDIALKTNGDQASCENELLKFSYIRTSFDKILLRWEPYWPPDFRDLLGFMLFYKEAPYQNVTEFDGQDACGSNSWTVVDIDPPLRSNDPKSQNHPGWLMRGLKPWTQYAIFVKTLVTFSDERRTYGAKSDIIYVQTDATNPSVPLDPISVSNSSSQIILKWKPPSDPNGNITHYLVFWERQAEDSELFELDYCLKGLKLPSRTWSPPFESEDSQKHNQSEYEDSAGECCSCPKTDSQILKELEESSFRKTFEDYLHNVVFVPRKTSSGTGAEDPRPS
Insulin receptor, sequence (P06213 763-1382 limits assumed): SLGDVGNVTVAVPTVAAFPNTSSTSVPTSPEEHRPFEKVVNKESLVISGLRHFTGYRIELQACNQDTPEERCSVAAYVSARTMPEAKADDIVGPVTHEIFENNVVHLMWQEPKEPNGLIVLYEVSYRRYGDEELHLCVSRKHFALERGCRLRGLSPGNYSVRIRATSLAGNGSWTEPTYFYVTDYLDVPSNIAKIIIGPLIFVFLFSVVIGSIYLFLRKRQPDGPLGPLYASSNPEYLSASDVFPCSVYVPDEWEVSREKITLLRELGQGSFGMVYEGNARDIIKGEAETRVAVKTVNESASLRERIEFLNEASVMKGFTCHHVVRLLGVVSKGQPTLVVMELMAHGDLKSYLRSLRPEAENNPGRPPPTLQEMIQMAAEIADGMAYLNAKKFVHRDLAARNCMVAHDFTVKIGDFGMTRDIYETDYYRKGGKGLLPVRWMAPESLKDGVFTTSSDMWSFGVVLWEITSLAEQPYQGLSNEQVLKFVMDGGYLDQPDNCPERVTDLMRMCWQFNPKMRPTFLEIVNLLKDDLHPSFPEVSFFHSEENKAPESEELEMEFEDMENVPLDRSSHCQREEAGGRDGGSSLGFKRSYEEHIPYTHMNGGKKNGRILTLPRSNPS

HeLa = assay: Antiproliferative activity against human HeLa cells assessed as reduction in cell viability by MTT assay; format: functional, cell-based
MDA-MB-231 [10] = assay: Antiproliferative activity against human MDA-MB-231 cells assessed as reduction in cell viability by MTT assay; format: functional, cell-based
HCT-116 [11] = assay: Antiproliferative activity against human HCT-116 cells assessed as reduction in cell viability by MTT assay; format: functional, cell-based
MCF7 [12] = assay: Antiproliferative activity against human MCF7 cells assessed as reduction in cell viability incubated for 72 hrs by MTT assay; format: functional, cell-based; conditions: MCF7, 72 h
SGC-7901 = assay: Antiproliferative activity against human SGC-7901 cells assessed as reduction in cell viability incubated for 72 hrs by MTT assay; format: functional, cell-based; conditions: SGC-7901, 72 h
A-375 = assay: Antiproliferative activity against human A-375 cells assessed as reduction in cell viability incubated for 72 hrs by MTT assay; format: functional, cell-based; conditions: A-375, 72 h
HepG2 [13] = assay: Antiproliferative activity against human HepG2 cells assessed as reduction in cell viability incubated for 72 hrs by MTT assay; format: functional, cell-based; conditions: HepG2, 72 h
[14] = molecular target: T2, von Hippel-Lindau disease tumor suppressor/Bromodomain-containing protein 4 (Homo sapiens, UniProt O60885+P40337); assay: PROTAC activity at BRD4/VHL E3 ligase in human HEK293 cells assessed as degradation of BRD4 incubated for 18 hrs by Nano-Glo HiBiT assay; format: cell-based
T2 sequence (P40337 whole entry, looked up, other chains not shown): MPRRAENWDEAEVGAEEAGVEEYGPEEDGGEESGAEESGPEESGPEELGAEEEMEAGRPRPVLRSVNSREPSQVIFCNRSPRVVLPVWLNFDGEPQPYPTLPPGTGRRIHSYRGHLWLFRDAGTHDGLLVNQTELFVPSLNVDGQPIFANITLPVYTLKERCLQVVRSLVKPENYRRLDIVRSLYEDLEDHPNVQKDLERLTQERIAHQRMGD

[15] = Antiproliferative activity against human BEAS-2B cells assessed as reduction in cell viability incubated for 48 hrs by MTT assay; format: toxicity, cell-based
HCT-15 = assay: Antiproliferative activity against human HCT-15 cells assessed as reduction in cell viability incubated for 48 hrs by MTT assay; format: functional, cell-based; conditions: HCT-15, 48 h
MCF7 [16] = assay: Antiproliferative activity against human MCF7 cells assessed as reduction in cell viability incubated for 48 hrs by MTT assay; format: functional, cell-based; conditions: MCF7, 48 h
[17] = Oral bioavailability in human at 10 mg/kg; format: ADME, organism-based; conditions: in vivo
MDA-MB-231 [18] = assay: Antiproliferative activity against human MDA-MB-231 cells assessed as reduction in cell viability incubated for 48 hrs by MTT assay; format: functional, cell-based; conditions: MDA-MB-231, 48 h
BXPC-3 = assay: Antiproliferative activity against human BXPC-3 cells assessed as reduction in cell viability incubated for 48 hrs by MTT assay; format: functional, cell-based; conditions: BXPC-3, 48 h
[19] = Half life in human at 10 mg/kg, po by LC-MS/MS analysis; format: ADME, organism-based; conditions: in vivo
[20] = Half life in human at 1 mg/kg, iv by LC-MS/MS analysis; format: ADME, organism-based; conditions: in vivo
A549 [21] = assay: Antiproliferative activity against human A549 cells assessed as reduction in cell viability incubated for 48 hrs by MTT assay; format: functional, cell-based; conditions: A549, 48 h
PANC-1 = assay: Antiproliferative activity against human PANC-1 cells assessed as reduction in cell viability incubated for 48 hrs by MTT assay; format: functional, cell-based; conditions: PANC-1, 48 h
HepG2 [22] = assay: Antiproliferative activity against human HepG2 cells assessed as reduction in cell viability incubated for 48 hrs by MTT assay; format: functional, cell-based; conditions: HepG2, 48 h
U-87 MG = assay: Antiproliferative activity against human U-87 MG cells assessed as reduction in cell viability incubated for 48 hrs by MTT assay; format: functional, cell-based, U-87MG ATCC
[23] = Antiproliferative activity against HUVEC cells assessed as cell growth inhibition measured after 72 hrs by crystal violet staining based analysis; format: toxicity; conditions: human
Focal adhesion kinase 1 [24] = molecular target: T1, Focal adhesion kinase 1; assay: Inhibition of FAK (unknown origin) at 0.1 uM relative to control
Target sequence in this assay (Q05397 2-1052 limits assumed): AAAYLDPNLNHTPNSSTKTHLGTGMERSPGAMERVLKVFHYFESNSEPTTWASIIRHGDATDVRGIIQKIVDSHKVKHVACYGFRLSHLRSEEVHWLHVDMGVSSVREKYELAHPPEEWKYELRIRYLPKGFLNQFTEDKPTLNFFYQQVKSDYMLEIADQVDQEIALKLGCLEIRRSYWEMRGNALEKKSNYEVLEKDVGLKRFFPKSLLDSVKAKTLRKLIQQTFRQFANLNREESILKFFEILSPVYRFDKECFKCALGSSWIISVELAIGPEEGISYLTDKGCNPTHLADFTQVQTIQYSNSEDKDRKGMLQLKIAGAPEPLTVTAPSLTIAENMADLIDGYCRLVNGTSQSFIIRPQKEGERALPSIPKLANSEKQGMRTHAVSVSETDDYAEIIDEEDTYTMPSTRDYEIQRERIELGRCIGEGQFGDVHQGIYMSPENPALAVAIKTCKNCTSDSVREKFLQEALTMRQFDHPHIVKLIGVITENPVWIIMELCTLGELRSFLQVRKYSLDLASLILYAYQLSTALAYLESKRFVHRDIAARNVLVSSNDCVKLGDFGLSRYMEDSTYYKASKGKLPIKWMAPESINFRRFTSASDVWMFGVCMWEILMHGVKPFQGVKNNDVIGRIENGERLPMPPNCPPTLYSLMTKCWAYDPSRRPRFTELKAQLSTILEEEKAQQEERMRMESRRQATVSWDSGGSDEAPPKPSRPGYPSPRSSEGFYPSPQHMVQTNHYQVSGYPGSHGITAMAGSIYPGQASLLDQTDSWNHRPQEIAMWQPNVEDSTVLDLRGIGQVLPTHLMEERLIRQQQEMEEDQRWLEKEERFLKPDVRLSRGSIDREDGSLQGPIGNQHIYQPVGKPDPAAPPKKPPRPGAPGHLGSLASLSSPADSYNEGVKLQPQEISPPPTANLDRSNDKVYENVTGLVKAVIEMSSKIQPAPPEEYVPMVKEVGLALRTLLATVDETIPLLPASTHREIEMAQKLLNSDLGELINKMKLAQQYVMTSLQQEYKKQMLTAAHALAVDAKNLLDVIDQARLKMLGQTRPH

[25] = Half life in human plasma; format: ADME, cell-free
Focal adhesion kinase 1 [26] = molecular target: T1, Focal adhesion kinase 1; assay: Inhibition of FAK (unknown origin) at 0.5 uM relative to control
Target sequence in this assay (Q05397 2-1052 limits assumed): as above

[27] = molecular target: T2, von Hippel-Lindau disease tumor suppressor/Bromodomain-containing protein 4; assay: PROTAC activity at BRD4/VHL E3 ligase in human HEK293 cells assessed as maximal degradation of BRD4 at 10 nM incubated for 18 hrs by Nano-Glo HiBiT assay relative to control; format: cell-based
MGC-803 [28] = assay: Antitumor activity against human MGC-803 cells xenografted in nude mouse assessed as tumor inhibition at 20 mg/kg, ip administered once every two days for 21 days relative to control; format: functional; parameters: scale not given: the % may be the effect or the level left; conditions: time 21 day

Structure (SMILES): COc1cc(C(=O)NC2CCNCC2)ccc1Nc1nc(Oc2cccc3c2C(=O)CC3)c2cc[nH]c2n1
half-life [7]: 4.08 h

Structure (SMILES): COc1cc2nc(-c3ccc(C(F)(F)F)cc3)cc(OCCCNCC3CCCO3)c2cc1OC (stereo unspecified)
IC50 (HCT-116 [8]): 5680 nM
IC50 (DLD-1): 2480 nM

Structure (SMILES): COc1cc2nc(-c3ccc(C(F)(F)F)cc3)cc(OCCCN3CCN(C)CC3)c2cc1OC
IC50 (HCT-116 [8]): 3090 nM
IC50 (DLD-1): 2250 nM

Structure (SMILES): CC(=O)NCCC(=O)Nc1cc(Nc2ncc(Br)c(Nc3ccc(NC(C)=O)cc3NC(C)=O)n2)ccc1OCCF
IC50 (Focal adhesion kinase 1 [9]): 3.7 nM

Structure (SMILES): CNC(=O)c1ccccc1Nc1cc(Nc2ccc(N3CCN(CC(=O)N[C@H](C(=O)N4C[C@H](O)C[C@H]4C(=O)N[C@@H](C)c4ccc(-c5scnc5C)cc4)C(C)(C)C)CC3)cc2OC)ncc1C(F)(F)F
DC50 [14]: 8.4 nM

Structure (SMILES): COc1cc2nc(-c3ccc(C(F)(F)F)cc3)cc(OCCCNC3CCN(C)CC3)c2cc1OC
IC50 (HCT-116 [8]): 3280 nM
IC50 (DLD-1): 1790 nM

Structure (SMILES): Clc1cccc(Cn2ccc3cnc(NC4CCC(N5CCNCC5)CC4)nc32)c1 (stereo unspecified)
IC50 at 48 h [15]: 7100 nM
IC50 (HCT-15): 900 nM
IC50 (MCF7 [16]): 2000 nM
bioavailability [17]: 77.6%
IC50 (MDA-MB-231 [18]): 1600 nM
IC50 (BXPC-3): 2300 nM
half-life [19]: 3.8 h
half-life [20]: 2.41 h
IC50 (Focal adhesion kinase 1 [9]): 9.9 nM
IC50 (A549 [21]): 800 nM
IC50 (PANC-1): 3700 nM
IC50 (HepG2 [22]): 3500 nM
IC50 (U-87 MG): 12700 nM
IC50 at 72 h [23]: 6900 nM

Structure (SMILES): Cc1ncsc1-c1ccc(CNC(=O)[C@@H]2C[C@@H](O)CN2C(=O)[C@@H](NC(=O)CCOCCOc2ccc(Nc3ncc(C(F)(F)F)c(NCc4cccc(N(C)S(C)(=O)=O)c4)n3)cc2)C(C)(C)C)cc1
DC50 [14]: 3 nM

Structure (SMILES): Clc1ccc(-c2cc(OCCCN3CCOCC3)c3cc(-c4ccco4)ccc3n2)cc1
IC50 (HCT-116 [8]): 2960 nM
IC50 (DLD-1): 2090 nM

Structure (SMILES): CNC(=O)c1ccccc1Nc1nc(Nc2ccc(N3CCOCC3)cc2OC)ncc1Cl
Activity (MGC-803 [28]): 53.53%

Continued, in another order:

IC50 (MDA-MB-231 [1]): 1890 nM
IC50 (A549 [2]): 1790 nM
IC50 (BGC-823): 194 nM
IC50 (MGC-803 [3]): 182 nM
IC50 (Histone deacetylase 1): 526 nM
IC50 (Histone deacetylase 3): 1050 nM
IC50 (DU-145): 467 nM
IC50 (Histone deacetylase 2): 629 nM
IC50 (MCF7 [4]): 834 nM
IC50 (HCT-116 [5]): 248 nM
IC50 (NCI-H520): 2580 nM
Structure (SMILES): CNC(=O)c1ccccc1Nc1nc(Nc2ccc(NC(=O)CCCCCCC(=O)NO)cc2)ncc1Cl
IC50 (TE-1): 1130 nM
IC50 (HGC-27): 512 nM
IC50 (ECa-109 cell line): 981 nM
IC50 (KYSE-450): 619 nM
IC50 [6]: 667 nM

IC50 (Insulin receptor): 168 nM
IC50 (HeLa): 2680 nM
IC50 (MDA-MB-231 [10]): 4190 nM
IC50 (HCT-116 [11]): 640 nM
IC50 (Focal adhesion kinase 1 [9]): 52 nM
Structure (SMILES): CNC(=O)c1ccccc1Nc1nc(Nc2ccc(N3CCN(C(=S)SCCCN4CCOCC4)CC3)cc2)ncc1Cl

IC50 (MCF7 [12]): 7920 nM
IC50 (SGC-7901): 11700 nM
IC50 (A-375): 7130 nM
IC50 (HepG2 [13]): 5560 nM
Structure (SMILES): O=C(CSC1Nc2ccccc2C(=O)N1c1ccccc1)N1CCN(c2ccccc2Cl)CC1 (stereo unspecified)

IC50 (Insulin receptor): > 1000 nM
IC50 (HeLa): 270 nM
IC50 (MDA-MB-231 [10]): 260 nM
IC50 (HCT-116 [11]): 190 nM
Structure (SMILES): O=C1CCc2cccc(Oc3nc(Nc4ccc(N5CCN(C(=S)SCCCN6CCOCC6)CC5)cc4)ncc3C(F)(F)F)c21

IC50 (Insulin receptor): 107 nM
IC50 (HeLa): 190 nM
IC50 (MDA-MB-231 [10]): 180 nM
IC50 (HCT-116 [11]): 170 nM
IC50 (Focal adhesion kinase 1 [9]): 48 nM
Structure (SMILES): CCCS(=O)(=O)NCC(=O)N1CCN(c2ccc(Nc3ncc(Cl)c(Nc4ccccc4C(=O)NC)n3)cc2)CC1

inhibition (Focal adhesion kinase 1 [24]): 84.4%
half-life [25]: > 3.25 h
inhibition (Focal adhesion kinase 1 [26]): 96.9%
Emax [27]: 85%
Structure (SMILES): CN(c1ncccc1CNc1nc(Nc2ccc(N3CCN(CCCCCCC(=O)NCCNc4cccc5c4C(=O)N(C4CCC(=O)NC4=O)C5=O)CC3)cc2)ncc1C(F)(F)F)S(C)(=O)=O (stereo unspecified)

IC50 (Focal adhesion kinase 1 [9]): 47.2 nM
Structure (SMILES): CNC(=O)c1ccccc1Nc1nc(Nc2ccc(/C=C/C(=O)N3CCOCC3)cc2)ncc1Cl
